The text below walks through data of ChEMBL document CHEMBL1201862, “PubChem BioAssay data set” (2004).

SMILES strings stand for the structures.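 Tested at 5 concentrations; 48 h exposure; 96-well plates; endpoints linearly interpolated, else capped at highest concentration. GI50 = concentration required for 50% inhibition of growth.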 Activity calls are given as the source filed them. Cut-off read from the data, not from the text of the source: active = GI50 up to about 1.1 µM and inactive = higher.

Some test systems named below: A549; HCT-15; HL-60; HT-29; IGROV-1; KM12; NCI-H23; SF-295; SK-MEL-5; SN12C; TK-10; U-251; UACC-62; UO-31; HOP-92; SNB-19; SW-620.
Common to all, as to assay: inhibition of tumour cell growth, NCI panel, 48 h

Take `O=C(CSc1nnc(Cc2ccccc2)o1)Nc1cccc([N+](=O)[O-])c1`: the GI50 in the experiment on A549 was > 100 µM (inactive); in the experiment with HCT-15, over 100 µM; in the experiment on HL-60, > 100 µM (inactive); with HT-29, > 100 µM (inactive); in the experiment with IGROV-1, > 100 µM (inactive); with KM12, > 100 µM (inactive). The GI50 with NCI-H23, with SF-295, in the experiment on SK-MEL-5, in the experiment on SN12C, with TK-10 and with U-251 was > 100 µM (inactive) throughout. Further, the GI50 in the experiment on UACC-62 and in the experiment with UO-31 was > 100 µM (inactive) in each case.
For the compound `COc1cc(NC(C)=O)c2[nH]c3c(C)cc(NC(C)=O)c(C)c3c2c1`, the GI50 was > 100 µM (inactive) with A549; over 100 µM in the experiment with HCT-15; > 100 µM (inactive) in the experiment on HL-60; > 100 µM (inactive) in the experiment with HOP-92; > 100 µM (inactive) in the experiment on HT-29; > 100 µM (inactive) in the experiment on IGROV-1. Moreover, the GI50 with KM12, with NCI-H23, in the experiment on SF-295, in the experiment on SK-MEL-5, in the experiment with SN12C and with SNB-19 was > 100 µM (inactive) each time. The GI50 in the experiment on SW-620, in the experiment with TK-10, with U-251 and with UO-31 was > 100 µM (inactive) throughout.
Take `C/C(CC(=O)Nc1ccc(Cl)cc1)=N\NC(=O)C[n+]1ccccc1`: the GI50 in the experiment on A549, with HL-60, with HOP-92, with HT-29, in the experiment with IGROV-1 and in the experiment on KM12 was > 100 µM (inactive) throughout. For the same compound, the GI50 in the experiment on NCI-H23, in the experiment on SF-295, in the experiment on SK-MEL-5, in the experiment on SW-620, in the experiment on TK-10 and in the experiment on U-251 was > 100 µM (inactive) throughout. Moreover, the GI50 in the experiment on UACC-62 and in the experiment with UO-31 was > 100 µM (inactive) each time.
Consider `Cc1c(C)c2cc3c(=O)c(CCl)coc3c(C)c2oc1=O`, for which the GI50 in the experiment with A549 is > 100 µM (inactive); in the experiment with HCT-15, over 100 µM; in the experiment on HL-60, > 100 µM (inactive); in the experiment on IGROV-1, > 100 µM (inactive); in the experiment with KM12, > 100 µM (inactive); in the experiment with NCI-H23, > 100 µM (inactive). The GI50 with SF-295, in the experiment with SK-MEL-5, in the experiment on SN12C, with SNB-19, in the experiment with SW-620 and with TK-10 was > 100 µM (inactive) in each case. The GI50 in the experiment with U-251, in the experiment on UACC-62 and in the experiment on UO-31 was > 100 µM (inactive) in each case.
For `O=C(C=P(c1ccccc1)(c1ccccc1)c1ccccc1)CC(=S)CC(=O)C=P(c1ccccc1)(c1ccccc1)c1ccccc1`, the GI50 in the experiment with A549 was 4.17 µM (inactive); with HCT-15, 15.3 µM; in the experiment with HL-60, 1.98 µM (inactive); with HOP-92, 1.65 µM (inactive); in the experiment on HT-29, 4.14 µM (inactive); in the experiment on IGROV-1, 4.66 µM (inactive). Moreover, the GI50 in the experiment with KM12 was 3.81 µM (inactive); in the experiment on NCI-H23 it was 3.14 µM (inactive); with SF-295 it was 3.16 µM (inactive); in the experiment on SK-MEL-5, 2.81 µM (inactive); in the experiment with SN12C it was 3.39 µM (inactive); with SNB-19, 4.33 µM (inactive). The GI50 with SW-620 was 4.29 µM (inactive); in the experiment with TK-10 it was 7.96 µM (inactive); in the experiment on U-251, 2.29 µM (inactive); in the experiment on UACC-62, 4.31 µM (inactive); in the experiment with UO-31 it was 29.3 µM (inactive).
As for `Cc1ccccc1NC(=O)C(=O)CC(=O)c1ccc([N+](=O)[O-])cc1`, the GI50 was > 100 µM (inactive) in the experiment on A549; over 100 µM in the experiment with HCT-15; > 100 µM (inactive) in the experiment with HOP-92; > 100 µM (inactive) with HT-29; > 100 µM (inactive) in the experiment on IGROV-1; > 100 µM (inactive) in the experiment with KM12. Also, the GI50 with NCI-H23, in the experiment with SF-295, with SN12C, with SNB-19, in the experiment with SW-620 and in the experiment on TK-10 was > 100 µM (inactive) throughout. Also, the GI50 in the experiment with U-251, in the experiment on UACC-62 and in the experiment on UO-31 was > 100 µM (inactive) in each case.
With `C[N+](C)(C)CC(=O)N/N=C(\CCC(=O)NCCc1ccccc1)CC(=O)c1ccccc1`, the GI50 in the experiment with A549 was > 100 µM (inactive); in the experiment on HCT-15, over 100 µM; with HL-60 it was > 100 µM (inactive); in the experiment on HOP-92, > 100 µM (inactive); in the experiment with HT-29, > 100 µM (inactive); in the experiment with IGROV-1, > 100 µM (inactive). In addition, the GI50 with KM12, in the experiment on NCI-H23, with SF-295, in the experiment with SK-MEL-5, in the experiment on SN12C and in the experiment with SNB-19 was > 100 µM (inactive) in each case. Further, the GI50 with SW-620, with TK-10, with U-251, in the experiment on UACC-62 and with UO-31 was > 100 µM (inactive) in each case.
As to `COc1cc(C(=O)C/C(CCC(=O)Nc2ccc(Cl)cc2Cl)=N/NC(=O)C(N)=O)ccc1O`, the GI50 in the experiment on A549 was > 100 µM (inactive); with HCT-15, over 100 µM; in the experiment with HL-60 it was > 100 µM (inactive); in the experiment on HOP-92, > 100 µM (inactive); with HT-29, > 100 µM (inactive); with IGROV-1, > 100 µM (inactive). The GI50 is 85.7 µM (inactive) with KM12; > 100 µM (inactive) in the experiment on NCI-H23; > 100 µM (inactive) with SF-295; > 100 µM (inactive) in the experiment with SK-MEL-5; > 100 µM (inactive) in the experiment with SN12C; > 100 µM (inactive) with SNB-19. The GI50 in the experiment on SW-620 was > 100 µM (inactive); in the experiment on TK-10 it was > 100 µM (inactive); in the experiment on U-251 it was > 100 µM (inactive); in the experiment with UACC-62, 65.9 µM (inactive); with UO-31 it was 72.9 µM (inactive).
As for `COc1cc(CCc2cccnc2)cc(OC)c1OC`, the GI50 in the experiment on A549 is > 100 µM (inactive); in the experiment on HCT-15, over 100 µM; with HL-60, > 100 µM (inactive); in the experiment on HOP-92, 30.3 µM (inactive); in the experiment on HT-29, > 100 µM (inactive); in the experiment on IGROV-1, > 100 µM (inactive). The GI50 with KM12, with NCI-H23, with SF-295, in the experiment with SK-MEL-5, in the experiment with SN12C and in the experiment on SNB-19 was > 100 µM (inactive) each time. Moreover, the GI50 in the experiment on SW-620, in the experiment with TK-10, in the experiment with U-251, in the experiment on UACC-62 and in the experiment on UO-31 was > 100 µM (inactive) each time.
